Columns and labels:
[1] = biological target: T1, NanoLuc-USP7 and HaloTag-VHL (Homo sapiens, UniProt P40337+Q93009); experiment: Cellular ternary complex formation assay (NanoBRET), HEK293T cells; type: cell-based; details: for Ternary complex induction (in words): NanoBRET
T1 construct: expressed in transfected cells; host or cells: HEK293T, transient transfection (FuGENE HD)
Protocol: The assay was performed as described step-by-step elsewhere. USP7 (NanoLuc-USP7) and VHL (HaloTag-VHL) were cloned in frame with N-terminal NanoLuc or HaloTag, respectively. For transfections, HEK293T cells were diluted in Opti-MEM medium without phenol red (Life Technologies) to 4×10^5 cells/mL and 9 µL were pipetted into each well of a white 384-well plate (Greiner 781207). 1 mL transfection mix was prepared containing 30 µL FuGENE HD (Promega, E2312) and 8 µL of each plasmid, incubated 20 min at RT and 1 µL were pipetted into each well leading to the total assay volume of 10 µL. […] 2 h prior to BRET measurements, the compounds were titrated to the cells using an Echo acoustic dispenser and the cells were incubated further at 37 °C and 5% CO2 to allow complex formation. NanoBRET Nano-Glo substrate and Extracellular NanoLuc Inhibitor (Promega, N2540) were then added as per the manufacturer’s protocol, and filtered luminescence was recorded on a PHERAstar FSX plate reader (BMG Labtech) equipped with a luminescence filter pair (donor: 450 nm BP filter; acceptor: 610 nm LP filter). Data were analyzed using GraphPad Prism 10 software.

[2] = biological target: T2, USP7 (Homo sapiens, UniProt Q93009); experiment: USP7 degradation, Western blot densitometry, Panc89 cells; type: cell-based; details: Panc89, 5 µM, 24 h, Western blot
T2 construct: allowed the analysis of endogenous USP7 degradation in both cell lines; endogenous in cells; host or cells: Panc89 (PDAC) and Ma-Mel-47 (melanoma) cells
T2 sequence (Q93009 whole entry): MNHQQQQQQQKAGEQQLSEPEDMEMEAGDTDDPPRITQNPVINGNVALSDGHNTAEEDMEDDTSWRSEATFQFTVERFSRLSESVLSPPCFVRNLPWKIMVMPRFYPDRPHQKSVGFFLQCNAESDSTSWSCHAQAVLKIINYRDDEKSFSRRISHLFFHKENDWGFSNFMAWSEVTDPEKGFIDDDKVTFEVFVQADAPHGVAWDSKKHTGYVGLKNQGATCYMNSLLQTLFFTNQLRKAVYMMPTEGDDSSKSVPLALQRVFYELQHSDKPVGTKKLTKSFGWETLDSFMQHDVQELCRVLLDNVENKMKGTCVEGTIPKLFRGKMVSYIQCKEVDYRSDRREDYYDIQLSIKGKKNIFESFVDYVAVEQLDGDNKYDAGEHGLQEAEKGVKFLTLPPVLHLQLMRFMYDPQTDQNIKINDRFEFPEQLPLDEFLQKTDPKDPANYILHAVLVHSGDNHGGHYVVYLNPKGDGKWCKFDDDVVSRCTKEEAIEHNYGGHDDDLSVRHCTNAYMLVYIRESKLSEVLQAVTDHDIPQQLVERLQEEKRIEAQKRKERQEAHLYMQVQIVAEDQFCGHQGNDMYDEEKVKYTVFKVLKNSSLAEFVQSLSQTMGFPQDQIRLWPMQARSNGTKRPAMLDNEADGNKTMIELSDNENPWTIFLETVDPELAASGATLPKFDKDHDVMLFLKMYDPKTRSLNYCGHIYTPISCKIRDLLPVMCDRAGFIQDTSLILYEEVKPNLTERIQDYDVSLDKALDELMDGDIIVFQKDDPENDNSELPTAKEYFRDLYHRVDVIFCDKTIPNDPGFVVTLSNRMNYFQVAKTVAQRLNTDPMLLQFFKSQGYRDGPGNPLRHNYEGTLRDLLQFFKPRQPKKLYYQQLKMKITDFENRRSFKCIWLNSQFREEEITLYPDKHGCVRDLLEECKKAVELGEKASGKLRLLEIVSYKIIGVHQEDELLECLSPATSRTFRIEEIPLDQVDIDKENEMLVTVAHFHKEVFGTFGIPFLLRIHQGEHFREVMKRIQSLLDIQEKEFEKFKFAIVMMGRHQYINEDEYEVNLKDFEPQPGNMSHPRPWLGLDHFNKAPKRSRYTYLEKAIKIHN
Protocol: (§1) The melanoma cell line Ma-Mel-47 (established previously[57] from metastatic lesions from patient tumor tissues after written informed consent) and the PDAC cell line Panc89 (RRID: CVCL_4056, also referenced as T3M-4[58]) were cultured in a humidified incubator with 5% CO2 at 37 °C in RPMI1640 (Ma-Mel-47) / DMEM (Panc89) medium containing 10% (v/v) fetal calf serum (FCS) and penicillin/streptomycin (all Gibco, Thermo Fisher Scientific). Studies on human material were approved by the institutional review board. […] Testing for mycoplasma was performed by PCR monthly. To confirm cell identity, STR analysis was performed by the Microsynth Seqlab GmbH.
(§2) To prepare samples for Western blot analysis, cells were seeded in 6-well dishes the day before treatment to adhere at 70–80% confluency.
(§3) Cell pellets of all PDAC samples were lysed via adding a buffer containing 150 mM NaCl, 50 mM Tris/HCl (pH 7.4), 1% Triton X-100, 10 mM EDTA, 1 mM PMSF, 10 mM orthovanadate, and 1% aprotinin, incubating on ice for 1 h with vortexing every 15 minutes. Lysates were cleared of cell debris by centrifugation at 10,000 ×g at 4 °C for 10 min. […] Lysates were then clarified of cell debris by centrifugation at 13,000 ×g at 4 °C for 15 min. Thereafter, the total protein concentrations were either determined immediately or the protein extracts were stored at −20 or −80 °C. Pellets for samples shown in Fig. 6 and Supplementary Fig. 6 were lysed in 120 µL lysis buffer (50 mM Tris pH 8.0, 150 mM NaCl, 1% (v/v) IGEPAL, 0.5% (w/v) Na-deoxycholate, 0.1% (w/v) SDS) supplemented with 1x EDTA-free inhibitor protease cocktail (cOmplete, Roche) for 15 min at 4 °C. 0.2 µL Turbonuclease (Sigma Aldrich) and 5 mM MgCl2 were then added and lysates were incubated for 15 min at 4 °C. Cell debris was separated by centrifugation at 20,817 ×g for 15 min at 4 °C.
(§4) Protein concentrations of cell lysates were measured using the Pierce BCA Protein Assay (Thermo Fisher Scientific) or the Quick Start Bradford Protein Assay (Bio-Rad), following the manufacturers’ protocols. Measurements were recorded on Tecan Spark or Tecan Infinite M200 plate readers. Lysates were kept on ice throughout the entire process.
(§5) To separate proteins via SDS-PAGE, 10-20 µg of protein in lysis buffer was diluted with SDS-PAGE loading buffer (for most blots containing DTT or 2-mercaptoethanol) and denatured at 95 °C for 5 min. Protein separation was conducted at 95–110 V using the Mini-PROTEAN electrophoresis system (Bio-Rad). Proteins were then transferred to PVDF or nitrocellulose membranes using the Trans-Blot Turbo system (Bio-Rad) with the Trans-Blot Turbo RTA Kit for PVDF membranes. Prior to transfer, membranes were activated by soaking in 100% ethanol (for PVDF) or distilled water (for nitrocellulose) and proteins were transferred using the Mixed MW or the standard (1.0 A, 25 V, 30 min) protocol.
(§6) After transfer, membranes were blocked in 5% (w/v) milk/TBS-T for 1 h and then washed three times for 10 min with TBS-T. They were incubated overnight at 4 °C with the primary antibody in 5% (w/v) milk/TBS-T or 1% (w/v) BSA/TBS-T. Membranes were then washed three times for 10 min with TBS-T and incubated with horseradish peroxidase (HRP)-conjugated secondary antibodies in a solution of 5% (w/v) BSA/TBS-T or 1% (w/v) milk/TBS-T for 1 h at room temperature. PBS-T was used for blots shown in Fig. 6 and Supplementary Fig. 6.
(§7) Membranes were incubated with Clarity Western ECL substrate (Bio-Rad) for PDAC samples or Pierce ECL Western Blotting-Substrate (Thermo Fisher Scientific) for melanoma. Chemiluminescent signals were detected with a ChemiDoc Imaging System (Bio-Rad) for PDAC samples or with a ECL Chemostar Imager (Intas Science Imaging) for melanoma samples.
(§8) Densitometric quantification of band intensities for Fig. 2c, d was performed using the ImageJ software.

[3] = biological target: HiBiT-USP7 (Homo sapiens, UniProt Q93009); experiment: HiBiT USP7 degradation assay, MV4-11 cells; type: cell-based; details: MV4-11 HiBiT-USP7, 6 h and 24 h
Sequence of HiBiT-USP7 (Q93009 whole entry, the tested form may be a part): as the sequence (Q93009 whole entry) above
Protocol: HiBiT-USP7 construct was cloned by extraction of USP7 fragment from plasmid pQHA-USP7 WT puroR (Addgene #46753) using appropriate restriction sites. The USP7 fragment was then ligated into the pRRL-PGK-HiBiT entry vector to generate the plasmid.
Lentiviral infection was used to generate stable a MV4-11 HiBiT cell line. Lentivirus was produced using plasmids psPAX2, pMD2.G, and HiBiT-USP7 plasmid in HEK293 cells. MV4-11 cells were infected with filtered virus supernatant and selected after 48 h of infection for the generation of the stable MV4-11^HiBiT-USP7 cell line.
The assay was performed as described previously. Briefly, MV4-11^HiBiT-USP7 cells were seeded and treated with compounds for the indicated time. Nano-Glo HiBiT Lytic Detection System (Promega) was used for the assay and luminescence was measured on a Tecan Spark microplate reader (Tecan). DC50 values were calculated using the sigmoidal dose-response (four parameters) equation in GraphPad Prism and are given as the concentration where 50% of the total signal was remaining. Dmax values are given as the maximum degradation observed at any concentration.

[4] = biological target: T2, USP7; experiment: USP7 degradation, Western blot densitometry, Ma-Mel-47 cells; type: cell-based; details: Ma-Mel-47, 5 µM, 24 h, Western blot
Protocol: as §1, §2, §3, §4, §5, §6, §7, §8

[5] = biological target: T2, USP7; experiment: PROTAC rescue experiments, Western blot, Panc89 and Ma-Mel-47 cells; type: cell-based; details: 2 h pretreatment (MLN4924 500 nM, CFZ 250 nM, NK249 10 µM), then 1 µM NK250 or NK266 for 20 h
Protocol: Cells were treated with proteasome inhibitor Carfilzomib (CFZ, 250 nM), NEDDylation Inhibitor MLN4924 (500 nM) or VHL inhibitor NK249 (10 µM). After 2 h, PROTAC (1 µM) was added. Cells were analyzed after 20 h.

[6] = test system: Panc89 cells; experiment: Confluence measurement (cell growth), Panc89; type: cell-based, human; details: Panc89, 1-10 µM, 72 h, 25 mM or 5 mM D-glucose
[7] = biological target: T3, human USP7 full length protein (Homo sapiens, UniProt Q93009); experiment: USP7 inhibition assay (Ubiquitin-Rhodamine110Gly cleavage); type: biochemical; details: Ub-RhoG cleavage, read-out: IC50 (half-maximal inhibition)
T3 construct: human USP7 full length protein
T3 sequence (Q93009 whole entry): as above
Protocol: USP7 inhibitors in DMSO were diluted in UbR buffer (40 mM Tris-HCl pH 8, 150 mM NaCl, 1 mM TCEP, 0.1 mg/mL BSA, 0.01% Tween20) to a concentration of 80 μM (4x). This stock was then further diluted in an 11-times serial dilution in UbR buffer containing 4% DMSO (4x). To this was added the same volume of human USP7 full length protein[59] […] The assay was initiated upon addition of 10 μL per well of Ubiquitin-Rhodamine110Gly (Ub-RhoG) (100 nM in UbR buffer, 2x). […] Normalization was carried out using samples featuring either no inhibitor or no enzyme as respective controls. […] Slopes of fluorescence over time curves were determined with Microsoft Excel through linear regression using the first 15 min of each measurement.

[8] = test system: Ma-Mel-47 USP7 K.O. cells; experiment: Medium color switch (images), Ma-Mel-47 USP7 K.O. cells; type: cell-based, human; details: Ma-Mel-47 USP7-KO, 72 h, 5 µM NK192, 10 µM FT671, 1 µM NK266

T1 sequence (Q93009 whole entry): as above
T1 sequence (P40337 whole entry): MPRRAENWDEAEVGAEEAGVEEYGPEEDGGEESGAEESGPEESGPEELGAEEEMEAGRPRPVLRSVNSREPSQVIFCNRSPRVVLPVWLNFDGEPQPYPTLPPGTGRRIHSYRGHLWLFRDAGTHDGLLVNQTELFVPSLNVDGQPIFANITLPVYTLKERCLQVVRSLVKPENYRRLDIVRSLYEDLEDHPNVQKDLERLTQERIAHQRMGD
T1 sequence (Q15370 whole entry partner): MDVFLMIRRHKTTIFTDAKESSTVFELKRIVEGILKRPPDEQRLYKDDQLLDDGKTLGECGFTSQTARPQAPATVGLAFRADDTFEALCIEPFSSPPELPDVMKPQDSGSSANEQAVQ
T1 sequence (Q15369 whole entry partner): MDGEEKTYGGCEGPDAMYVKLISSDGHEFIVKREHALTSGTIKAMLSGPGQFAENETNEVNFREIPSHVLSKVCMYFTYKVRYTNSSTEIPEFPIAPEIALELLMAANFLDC

Which “Ternary complex induction (in words)” value [1] does the source give for `Cc1ncsc1-c1ccc(CNC(=O)[C@@H]2C[C@@H](O)CN2C(=O)[C@@H](NC(=O)C2(C#N)CC2)C(C)(C)C)cc1` [VH298, reference compound] here?
The value was “neither the negative control NK245 nor the VHL ligand VH298 induced a ternary complex”.

Which results are given for `Cc1ncsc1-c1ccc(CNC(=O)[C@@H]2C[C@@H](O)CN2C(=O)[C@@H](NC(=O)C23C4C5C2C2C3C4C52C(=O)N2CCC(C3CCN(c4ccc(-n5ncc6c(=O)n(CC7(O)CCN(C(=O)C[C@@H](C)c8ccccc8)CC7)cnc65)cc4)CC3)CC2)C(C)(C)C)cc1` (stereo partly shown) [NK233]?
Ternary complex induction (in words) [1]: did not increase the BRET signal to the same level; USP7 degradation (in words) [2]: effectively degraded USP7; HiBiT-USP7 levels (in words) [3]: lower potency; USP7 degradation (in words) [4]: robust degradation of USP7

How did the “Rescue of PROTAC-mediated USP7 degradation (in words)” value (shortened to “Rescue”) [5] turn out when `NS(=O)(=O)OC[C@@H]1C[C@@H](n2ccc3c(N[C@H]4CCc5ccccc54)ncnc32)C[C@@H]1O` [MLN4924, Pevonedistat] was run?
The value was “rescued PROTAC-mediated degradation of USP7”.

`O=C(C[C@@H](C(F)F)n1ccc(F)n1)N1CCC(O)(Cn2cnc3c(cnn3-c3ccc(F)cc3)c2=O)CC1` [FT671, reference compound] was tested. Which “Cell growth (in words)” value [6] did it give?
Its value is “not affected”.

What about the IC50 [7] of the same compound?
The IC50 was 13 nM.

And the “Change of media color (in words)” value [8]?
The value was “the same change of media color”.

How did the “Rescue” value [5] turn out when `CC(C)C[C@H](NC(=O)[C@H](CCc1ccccc1)NC(=O)CN1CCOCC1)C(=O)N[C@@H](Cc1ccccc1)C(=O)N[C@@H](CC(C)C)C(=O)[C@@]1(C)CO1` [carfilzomib, Carfilzomib] was run?
Its value is “rescued PROTAC-mediated degradation of USP7”.

With `Cc1ncsc1-c1ccc([C@H](C)NC(=O)[C@@H]2C[C@@H](O)CN2C(=O)[C@@H](NC(=O)C2(F)CC2)C(C)(C)C)cc1` [NK249] as the compound, how does the “Rescue” value [5] read?
The value was “rescued PROTAC-mediated degradation of USP7”.

Which IC50 [7] does the source give for `CCc1c(-c2ccc3[nH]ncc3c2)cnc(N)c1-c1ccc(O)cc1` [GNE-6640] here?
Its IC50 is 545 nM.

How did the EC50 ([1]; compound 2 h prior BRET measurement, read-out: EC50 (half-maximal ternary complex formation concentration)) turn out when `Cc1ncsc1-c1ccc(CNC(=O)C2CC(O)CN2C(=O)C(NC(=O)C2CCC(C(=O)N3CCN(c4ccc(-n5ncc6c(=O)n(CC7(O)CCN(C(=O)CC(C)c8ccccc8)CC7)cnc65)cc4)CC3)CC2)C(C)(C)C)cc1` (stereo not shown) [NK225] was run?
Its EC50 is 144 nM.

And the “USP7 degradation (in words)” value [2]?
Its value is “effectively degraded USP7”.

And the “HiBiT-USP7 levels (in words)” value [3]?
The value was “lower potency”.

And the “USP7 degradation (in words)” value [4]?
Its value is “robust degradation of USP7”.

How did the IC50 [7] turn out when `CN1CCN(CCC(=O)Nc2ccc3c(=O)n(CC4(O)CCN(C(=O)[C@@H](CCCNC(=O)c5ccc6c(Cl)c7c(nc6c5)CCCC7)Cc5ccccc5)CC4)cnc3c2)CC1` [XL177A] was run?
The IC50 was 91 nM.

Which IC50 [7] does the source give for `CC(=O)c1cc([N+](=O)[O-])c(Sc2cccc(Cl)c2Cl)s1` [P5091] here?
Its IC50 is 2070 nM.

How did the IC50 [7] turn out when `CC(CC(=O)N1CCC(O)(Cn2cnc3c(cnn3-c3ccc(N4CCN(C(=O)CCOCCOCCOCCNC(=O)CCCCC5SCC6NC(=O)NC65)CC4)cc3)c2=O)CC1)c1ccccc1` (stereo not shown) [NK264] was run?
Its IC50 is 15 nM.

Source: article PMC13172357 (Nature Communications, 2026)
